The text below walks through data of ChEMBL document CHEMBL3045820, “Discovery of a novel histone deacetylase 8 inhibitor by virtual screening” (Med Chem Res, 2012).

The test concerns the target T1, Histone deacetylase 8 (Homo sapiens, UniProt Q9BY41).
T1 sequence (Q9BY41 whole entry): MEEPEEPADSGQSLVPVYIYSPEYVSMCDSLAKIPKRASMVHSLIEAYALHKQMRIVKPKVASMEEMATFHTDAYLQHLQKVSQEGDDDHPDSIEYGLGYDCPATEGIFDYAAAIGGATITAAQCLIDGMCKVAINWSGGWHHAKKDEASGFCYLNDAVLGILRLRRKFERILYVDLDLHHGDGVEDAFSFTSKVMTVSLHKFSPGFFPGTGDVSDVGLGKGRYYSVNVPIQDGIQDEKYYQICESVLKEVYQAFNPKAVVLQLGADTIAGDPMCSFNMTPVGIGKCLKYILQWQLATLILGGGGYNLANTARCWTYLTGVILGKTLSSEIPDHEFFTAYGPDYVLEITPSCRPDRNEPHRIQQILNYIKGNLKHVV
The experiment in a line: Inhibition of HDAC8 (unknown origin) expressed in Escherichia coli using Boc-Lys (acetyl)-AMC as substrate incubated for 5 min prior to substrate addition measured after 30 min by fluorescence assay.

Consider `COc1cc(C(=O)NN)ccc1COc1ccc(Cl)c(C)c1`, for which it took 1600 nM to reach half-maximal inhibition (IC50).

For orientation: IC50 means the concentration that inhibits the measured activity by half.
